Reference: the NIST ThermoML archive (doi:10.1016/j.jct.2009.08.018)

Experiment: xn = mol fraction of the nth substance listed
Settings: Liquid, Static

CCCCCC[n+]1ccn(C)c1.O=S(=O)([N-]S(=O)(=O)C(F)(F)F)C(F)(F)F + O=C=O
Settings | molar volume [m3/mol]
298.15 K, 2015 kPa, x2 = 0.396 | 0.0002205
298.15 K, 3586 kPa, x2 = 0.592 | 0.000163
298.15 K, 6489 kPa, x2 = 0.762 | 0.0001127
298.15 K, 8967 kPa, x2 = 0.8 | 9.883e-05
298.15 K, 10321 kPa, x2 = 0.81 | 9.556e-05
298.15 K, 11969 kPa, x2 = 0.819 | 9.198e-05
298.15 K, 13525 kPa, x2 = 0.822 | 9.084e-05
298.15 K, 14804 kPa, x2 = 0.823 | 9.095e-05
323.15 K, 800 kPa, x2 = 0.139 | 0.0003082
323.15 K, 3716 kPa, x2 = 0.487 | 0.0002013
323.15 K, 5430 kPa, x2 = 0.583 | 0.0001725
323.15 K, 6560 kPa, x2 = 0.637 | 0.0001568
323.15 K, 8039 kPa, x2 = 0.692 | 0.0001395
323.15 K, 9078 kPa, x2 = 0.726 | 0.0001282
323.15 K, 9969 kPa, x2 = 0.751 | 0.000118
323.15 K, 11081 kPa, x2 = 0.769 | 0.0001108
323.15 K, 12224 kPa, x2 = 0.774 | 0.0001094
323.15 K, 12959 kPa, x2 = 0.779 | 0.0001079
343.15 K, 1793 kPa, x2 = 0.14 | 0.0003081
343.15 K, 2754 kPa, x2 = 0.239 | 0.0002782
343.15 K, 5537 kPa, x2 = 0.436 | 0.0002194
343.15 K, 8861 kPa, x2 = 0.596 | 0.0001701
343.15 K, 11560 kPa, x2 = 0.673 | 0.0001447
343.15 K, 14469 kPa, x2 = 0.721 | 0.0001282
343.15 K, 19818 kPa, x2 = 0.755 | 0.0001169
343.15 K, 24708 kPa, x2 = 0.771 | 0.0001115

CCn1cc[n+](C)c1.O=S(=O)([N-]S(=O)(=O)C(F)(F)F)C(F)(F)F + O=C=O
Settings | molar volume [m3/mol]
298.15 K, 1235 kPa, x2 = 0.28 | 0.000204
298.15 K, 3254 kPa, x2 = 0.533 | 0.0001415
298.15 K, 6471 kPa, x2 = 0.747 | 9.622e-05
298.15 K, 10194 kPa, x2 = 0.767 | 9.034e-05
298.15 K, 11608 kPa, x2 = 0.777 | 8.747e-05
298.15 K, 13084 kPa, x2 = 0.781 | 8.646e-05
298.15 K, 14794 kPa, x2 = 0.782 | 8.625e-05
323.15 K, 2005 kPa, x2 = 0.302 | 0.0002021
323.15 K, 4250 kPa, x2 = 0.483 | 0.0001607
323.15 K, 6213 kPa, x2 = 0.587 | 0.0001367
323.15 K, 8156 kPa, x2 = 0.657 | 0.0001197
323.15 K, 10081 kPa, x2 = 0.711 | 0.0001049
323.15 K, 12307 kPa, x2 = 0.743 | 9.597e-05
323.15 K, 14625 kPa, x2 = 0.749 | 9.492e-05
343.15 K, 2182 kPa, x2 = 0.247 | 0.0002186
343.15 K, 4070 kPa, x2 = 0.416 | 0.0001777
343.15 K, 6063 kPa, x2 = 0.509 | 0.0001559
343.15 K, 7999 kPa, x2 = 0.579 | 0.0001394
343.15 K, 9938 kPa, x2 = 0.636 | 0.0001249
343.15 K, 12143 kPa, x2 = 0.684 | 0.0001117
343.15 K, 14682 kPa, x2 = 0.709 | 0.0001056

CCCCCCCCCCn1cc[n+](C)c1.O=S(=O)([N-]S(=O)(=O)C(F)(F)F)C(F)(F)F + O=C=O
Settings | molar volume [m3/mol]
298.15 K, 1474 kPa, x2 = 0.35 | 0.0002775
298.15 K, 2828 kPa, x2 = 0.562 | 0.0001997
298.15 K, 4516 kPa, x2 = 0.709 | 0.000147
298.15 K, 6799 kPa, x2 = 0.81 | 0.0001111
298.15 K, 8659 kPa, x2 = 0.83 | 0.0001006
298.15 K, 10909 kPa, x2 = 0.841 | 9.556e-05
298.15 K, 12873 kPa, x2 = 0.848 | 9.235e-05
298.15 K, 14847 kPa, x2 = 0.849 | 9.169e-05
323.15 K, 1439 kPa, x2 = 0.257 | 0.0003212
323.15 K, 3371 kPa, x2 = 0.489 | 0.0002347
323.15 K, 6891 kPa, x2 = 0.696 | 0.0001569
323.15 K, 8581 kPa, x2 = 0.752 | 0.0001354
323.15 K, 10917 kPa, x2 = 0.8 | 0.0001145
323.15 K, 13030 kPa, x2 = 0.814 | 0.0001086
323.15 K, 14596 kPa, x2 = 0.819 | 0.0001071
343.15 K, 2003 kPa, x2 = 0.302 | 0.0003089
343.15 K, 3941 kPa, x2 = 0.475 | 0.0002428
343.15 K, 6242 kPa, x2 = 0.587 | 0.0002017
343.15 K, 8674 kPa, x2 = 0.683 | 0.000164
343.15 K, 10773 kPa, x2 = 0.744 | 0.0001384
343.15 K, 12515 kPa, x2 = 0.776 | 0.0001249
343.15 K, 14534 kPa, x2 = 0.801 | 0.000113
